The values below come from BindingDB's records for doi:10.1016/S0960-894X(01)00040-3 (Glaxosmithkline, 2001).

This assay has as its target Tyrosine--tRNA ligase (Staphylococcus aureus). As to the kind of experiment: Inhibitory activity against Staphylococcus aureus tyrosyl tRNA synthetase (YRS) using aminoacylation assay.

The structures appear in SMILES notation.

For orientation: IC50 means the point on the concentration scale where inhibition reaches its midpoint. Read a high IC50 as weaker potency in that assay. `CCCCOC(=O)C(NC(=O)[C@@H](N)Cc1ccc(O)cc1)[C@H]1C[C@@H](O)[C@@H](O)[C@@H](C)O1` (stereo partly drawn) [[2-Amino-3-((S)-4-hydroxy-phenyl)-propionylamino]-((2R,4R,5R,6R)-4,5-dihydroxy-6-methyl-tetrahydro-pyran-2-yl)-acetic acid butyl ester] showed a 50% inhibitory concentration (IC50) of 3.6 nM.

In turn, `N[C@@H](Cc1ccc(O)cc1)C(=O)NC(C(=O)O)[C@@H]1O[C@H](CO)[C@H](O)[C@H](O)[C@H]1O` (stereo partly drawn) [[2-Amino-3-((S)-4-hydroxy-phenyl)-propionylamino]-((2S,3R,4R,5R,6R)-3,4,5-trihydroxy-6-hydroxymethyl-tetrahydro-pyran-2-yl)-acetic acid] displayed an IC50 of 190 nM.

`CCCCOC(=O)[C@@H](NC(=O)[C@@H](N)Cc1ccc(O)cc1)[C@@H]1O[C@H](C)[C@H](O)[C@H](O)[C@H]1O` [[2-Amino-3-((S)-4-hydroxy-phenyl)-propionylamino]-((2S,3R,4S,5R,6R)-3,4,5-trihydroxy-6-methyl-tetrahydro-pyran-2-yl)-acetic acid (S)-butyl ester] displayed an IC50 of 0.8 nM.
